In article PMC5612938, “A multiple biomarker assay for quality assessment of botanical drugs using a versatile microfluidic chip” (Scientific Reports, 2017):
Marks after values point to notes of the source that are not given here.

Assays:
[1] = molecular target: T1, Thrombin (from human plasma) (Homo sapiens, UniProt P00734); assay: on-chip thrombin inhibition assay (S-2238 hydrolysis, absorbance 405 nm); format: biochemical; parameters: key to IC50 (μM) or inhibition rate: /: No obvious inhibition observed
T1 construct: Thrombin (from human plasma); purchased Sigma-Aldrich; host or cells: human plasma
Protocol: To enhance the performance of the on-chip assay, experimental parameters such as concentrations of enzymes and substrates, substrate reaction time, and incubation time of samples and enzymes were stepwise optimized. The activity of thrombin was determined by measuring the hydrolysis of chromogenic substrate S-2238 (HD-Phe-Pip-Arg-pNA) at 405 nm. As depicted in Fig. 2a, the absorbance increased rapidly along with the elevated concentrations of thrombin, while it reached a plateau at 0.5 U/mL. […] Moreover, it was clear from Fig. 2d that the maximum inhibitory effect of QSYQ sample (I1 of Table 1 in this assay) on thrombin was observed after 60 min of incubation. Therefore, to achieve favorable response and prevent signal saturation, optimal assay conditions for thrombin were determined to be 0.2 U/mL, 0.31 mM, 30 min and 60 min for the final concentrations of thrombin and S-2238, substrate reaction time and incubation time, respectively. […] In this assay, the concentrations of ACE and FAPGG were finally set at 0.027 U/mL and 0.72 mM, where the background value was lower and the reaction time was relatively shorter (30 min).
The optimized protocol was first applied to assess the quality of 11 batches of QSYQ intermediates (Table 1). Enzyme inhibition (in percentages) was employed as an indicator of drug quality and calculated according to the following equations: thrombin inhibition (%) = [1 − (AQSYQ/Ablank)] × 100; ACE inhibition (%) = [1 − (ΔAQSYQ/ΔAblank)] × 100; where AQSYQ and Ablank were the absorbance of the test sample and the blank sample after the enzymatic reaction (the background value was subtracted), and ΔAQSYQ and ΔAblank were the absorbance decrease between 0 min and 30 min of the samples. A scatter plot was generated to display the inhibition result of thrombin and ACE simultaneously. […] Moreover, artificial abnormal samples I6, I7 and I8, each with one abnormal (pre-extracted) herb, presented relatively lower inhibitions compared with I1.
Thrombin (from human plasma), ACE (from rabbit lung), FAPGG and captopril were purchased from Sigma-Aldrich (St. Louis, USA). S-2238 was obtained from Aglyco (Beijing, China). AEBSF-HCl was purchased from Selleckchem (Houston, USA). Trizma base (Tris) was obtained from Sangon Biotech (Shanghai, China) and dimethyl sulfoxide (DMSO) from J&K Scientific (Beijing, China). All other chemicals were purchased from Sinopharm Chemical (Shanghai, China) unless otherwise indicated. 0.2 M Phosphate buffer (PB, pH 6.5), and 50 mM Tris-HCl buffer (200 mM NaCl, pH 8.3) were prepared as assay buffers for thrombin and ACE, respectively.
MBs (10 mg/mL) were diluted 10 times in PB or Tris-HCl buffer, and 10 μL of the diluted MBs (1 mg/mL) were injected into one channel of the chip using a syringe infusion pump (Harvard Apparatus, USA) and retained by an external magnet. Then, 10 μL of thrombin or ACE solution was added and incubated with MBs for two hours at room temperature to form enzyme-MB complexes. The magnet was manually controlled to move MBs back and forth to enhance the ratio of reaction. Subsequently, MBs were washed twice in assay buffer and magnetically transferred to the other channel through the fluidic bridge, whose opening and closing was controlled by a pneumatic valve. Next, 10 μL of sample solutions of tested drug and 10 μL of enzymatic substrate were sequentially infused to the channel by the pump and incubated with the enzyme. When the enzymatic reaction was finished, the MBs were retained in the channel, and air was injected into the channel from the inlet using a syringe to push all the reacted solution to a 384-well plate. The absorbance of the solution was then monitored at 405 nm (for S-2238) or 340 nm (for FAPGG) using an Infinite F200 spectrophotometer (Tecan, Männedorf, Switzerland). Moreover, after detection, the reaction channel was washed three times by assay buffer to remove unbound constituents. […]

[2] = molecular target: T1, Thrombin (from human plasma); assay: on-chip affinity screening, binding degree by LC-MS peak area vs protein-free control (thrombin); conditions: for thrombin; [(As − Ac)/As] × 100, sample vs protein-free control, EIC peak area
Text: In addition to quality assessment, the microfluidic chip can also function as “affinity chromatography” to identify bioactive constituents from botanical drugs in a convenient and efficient manner. After the bioassay, the bound phytochemicals were dissociated from the enzymes and accurately identified by LC-MS. The material used for the chambers in microfluidic system, polydimethylsiloxane (PDMS), is apt to adsorb small molecules nonspecifically, thus a protein-free control was applied to reflect the degree of nonspecific binding of compounds to the chip. Peak areas were obtained from the extracted ion chromatography (EIC) in an ion-trap mass spectrometry (IT-MS), and binding degree (binding degree % = [(As − Ac)/As] × 100, where As and Ac were the peak area in the sample and control, respectively) was calculated to indicate binding specificity. […] All these peaks were unambiguously confirmed via comparisons with chemical standards in terms of retention time and mass spectra (Table 2), and five thrombin inhibitors (danshensu, salvianolic acid B, salvianolic acid C, rosmarinic acid and ginsenoside Rg1) and six ACE inhibitors (astragaloside IV, ononin, formononetin, calycosin, danshensu and salvianolic acid B) were preliminarily identified. […] Enzyme inhibition assays of these hit compounds were then performed to verify the screening results. […] Compounds showing an inhibition rate over 70% were subjected to IC50 measurement.
MBs (10 mg/mL) were diluted 10 times in PB or Tris-HCl buffer, and 10 μL of the diluted MBs (1 mg/mL) were injected into one channel of the chip using a syringe infusion pump (Harvard Apparatus, USA) and retained by an external magnet. Then, 10 μL of thrombin or ACE solution was added and incubated with MBs for two hours at room temperature to form enzyme-MB complexes. The magnet was manually controlled to move MBs back and forth to enhance the ratio of reaction. Subsequently, MBs were washed twice in assay buffer and magnetically transferred to the other channel through the fluidic bridge, whose opening and closing was controlled by a pneumatic valve. Next, 10 μL of sample solutions of tested drug and 10 μL of enzymatic substrate were sequentially infused to the channel by the pump and incubated with the enzyme. When the enzymatic reaction was finished, the MBs were retained in the channel, and air was injected into the channel from the inlet using a syringe to push all the reacted solution to a 384-well plate. The absorbance of the solution was then monitored at 405 nm (for S-2238) or 340 nm (for FAPGG) using an Infinite F200 spectrophotometer (Tecan, Männedorf, Switzerland). Moreover, after detection, the reaction channel was washed three times by assay buffer to remove unbound constituents. 20 μL of 80% aqueous methanol was then injected and incubated with MBs for one hour to dissociate the bound constituents. The resulting solutions of replicates were combined, evaporated by a centrifugal evaporator, reconstituted in 80% aqueous methanol, centrifuged at 10,000 rpm for 10 min, and analyzed by LC-MS for chemical identification.
An Agilent 1100 HPLC system (Agilent Technologies, Waldbronn, Germany) coupled with an LCQ Deca XP^plus IT-MS (Thermo Finnigan, San Jose, CA, USA) equipped with an electrospray ionization (ESI) interface was employed for structure elucidation of the bounded constituents. […]

| thrombin inhibition (in words) ([1]; at tested concentrations) | IC50 ([1]; for thrombin) [µM] | SMILES | IC50 (μM) or inhibition rate ([1]; for thrombin, symbol / = no obvious inhibition) | Binding degree (%) [2] |
| --- | --- | --- | --- | --- |
| – | – | CC(C)=CCC[C@](C)(O[C@@H]1O[C@H](CO)[C@@H](O)[C@H](O)[C@H]1O)[C@H]1CC[C@]2(C)[C@@H]1[C@H](O)C[C@@H]1[C@@]3(C)CC[C@H](O)C(C)(C)[C@@H]3[C@@H](O[C@@H]3O[C@H](CO)[C@@H](O)[C@H](O)[C@H]3O)C[C@]12C [Ginsenoside Rg1] | /^g | 20.6^c % |
| good thrombin inhibitions | 180 | O=C(/C=C/c1ccc(O)c2oc(-c3ccc(O)c(O)c3)cc12)O[C@H](Cc1ccc(O)c(O)c1)C(=O)O [Salvianolic acid C] | – | 100^c % |
